In PubChem BioAssay AID1963975 (Molecular Pharmacology Branch, DTP, NCI, 2024):
Where “and” joins values, the source holds several entries; their conditions need not be identical. Equal values may be shown once.

System: 624824-186-R-J2-PDC multicell spheroids, viability
Test: Anticancer human tumor 624824-186-R-J2-PDC patient-derived colon adenocarcinoma cell line growth inhibition [PI3K]
Details: for viability, T/C: stronger effect = lower value
Excerpt: Combinatorial screen of targeted agents with the PI3K inhibitors inavolisib, alpelisib, duvelisib, and copanlisib in multi-cell type tumor spheroids
A high-throughput screen of multi-cell type tumor spheroids was designed to identify active combinations of targeted small molecules and PI3K pathway inhibitors. Complex spheroids include a stromal component modeled by human endothelial cells (HUVEC) and fibroblasts modeled by human mesenchymal stem cells (MSCs). The concentration ranges selected for each drug and investigational agent were based upon clinically achievable concentrations if the clinical Cmax of the agent was known.
Compounds. The drugs and investigational agents: inavolisib (NSC800729), alpelisib (NSC765974), duvelisib (NSC772469), copanlisib (NSC816437), ipatasertib (NSC767898), afuresertib (NSC778305), talazoparib (NSC767125), sapanisertib (NSC764658), selumetinib (NSC741078), tovorafenib (DAY101, NSC766906), vemurafenib (NSC761431), ravoxertinib (NSC781343), sotorasib (NSC818433), MRTX1133 (NSC 836407), abemaciclib (NSC 768073), palbociclib (NSC758247), venetoclax (NSC 766270), SY5609 (NSC837396), enzalutamide (NSC755605), and darolutamide (NSC825331), were obtained from the National Cancer Institute (NCI) Developmental Therapeutics Program Chemical Repository. The FDA-approved anticancer drug set is available from the NCI Developmental Therapeutics Program. […] The stock solutions were prepared in dimethyl sulfoxide (DMSO, Sigma-Aldrich, St. Louis, MO, cat. D2650) at 800-fold the tested concentration and stored at -70 degrees C prior to their use. All drugs and investigational agents were tested over a range starting from a high concentration at or near the clinical Cmax and decreasing in half-log increments. If the clinical Cmax for an agent had not been determined, the highest concentration tested was 10 microM.
Cell Culture. All cells were maintained in an incubator at 37 degrees C and 5% CO2 with 95% humidity. The PDC lines were cultured according to standard operating procedures established by the NCI PDMR (https://pdmr.cancer.gov/sops/default.htm). All PDCs were thawed and cultured in Matrigel-coated flasks prepared with a working solution of 1X Ham's F-12 nutrient mix, without supplementation (Invitrogen, Waltham, MA, cat. 11765054), 100 U/mL penicillin-streptomycin (Invitrogen, cat. 15140122), and 2.5% Matrigel (Corning Inc., Corning, NY, cat. 354248) for the first three passages. The 354836-022-R-J1-PDC, 475296-252-R-J1-PDC, and 997726-040-R-J2-PDC lines were cultured in 6A media, which includes advanced DMEM/F-12 (Thermo Fisher Scientific, cat. 12634028), 10 mM HEPES (Thermo Fisher Scientific, cat. 15630080), 1X GlutaMAX supplement (Thermo Fisher Scientific, cat. 35050061), 0.1 mg/mL primocin (InvivoGen, San Diego, CA, cat. ant-pm-2), 10% defined fetal bovine serum, heat inactivated (HyClone Laboratories Inc., Logan, UT, cat. SH30070.03HI), 50% L-WRN conditioned media (ATCC, cat. CRL-3276), 1.25 mM N-Acetyl-L-cysteine (Sigma-Aldrich, cat. A9165), 10 mM nicotinamide (Sigma-Aldrich, cat. N0636), 1X B-27 supplement (Thermo Fisher Scientific, cat. 17504044), 1X N-2 supplement (Thermo Fisher Scientific, cat. 17502048), and 10 microM Y-27632 dihydrochloride (Tocris Bioscience, Bristol, United Kingdom, cat. 1254). The 624824-186-R-J2-PDC line was cultured in 6C/Colon 1B media, which includes all 6A media components plus 50 ng/mL human EGF recombinant protein (Thermo Fisher Scientific, cat. PHG0311). […]

[1] = compound alone, run of 06/12/2023
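Note: spheroids exposed to agents for 7 days before viability read.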
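Throughout, for viability, T/C: 100% = DMSO vehicle treated spheroids.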

Row | IC50 (curve of compound) | Structure (SMILES) | viability, T/C (compound 0.0316 µM) | viability, T/C (compound 0.316 µM) | viability, T/C (compound 3.16 µM) | viability, T/C (compound 10 µM) | viability, T/C (compound 0.1 µM) | viability, T/C (compound 1 µM) | further results
1 | > 10 µM | C#Cc1c(F)ccc2cc(O)cc(-c3ncc4c(N5CC6CCC(C5)N6)nc(OCC56CCCN5CC(F)C6)nc4c3F)c12 (stereo not drawn) | 94.5% [middle of 4 runs] | 97% [middle of 4 runs] | 84.7% [middle of 4 runs] | 86.3% [middle of 4 runs] | – | – | –
2 | > 0.1 µM | CC(=O)c1c(C)c2cnc(Nc3ccc(N4CCNCC4)cn3)nc2n(C2CCCC2)c1=O | – | – | – | – | 87.5% [middle of 4 runs] | – | viability, T/C (compound 0.00316 µM): 93.5% [middle of 4 runs]
3 | > 10 µM | CC(C)NCC(C(=O)N1CCN(c2ncnc3c2C(C)CC3O)CC1)c1ccc(Cl)cc1 (stereo not drawn) | – | 84.4% [middle of 4 runs] | 88.5% [middle of 4 runs] | 85.7% [middle of 4 runs] | 92.5% [middle of 4 runs] | – | –
4 | > 0.1 µM | CC(C)n1nc(-c2ccc3oc(N)nc3c2)c2c(N)ncnc21 | 76.4% [middle of 4 runs] | – | – | – | 79.5% [middle of 4 runs] | – | viability, T/C (compound 0.00316 µM): 79.1% [middle of 4 runs]; viability, T/C (compound 0.01 µM): 82.6% [middle of 4 runs]
5 | > 10 µM | CC(Cn1ccc(-c2ccc(C#N)c(Cl)c2)n1)NC(=O)c1cc(C(C)O)[nH]n1 (stereo not drawn) | 91.5% [middle of 4 runs] | 89.7% [middle of 4 runs] | 101% [middle of 4 runs] | 106% [middle of 4 runs] | – | 92.9% [middle of 4 runs] | –
6 | – | CC(Nc1ccc2c(c1)OCCn1cc(N3C(=O)OCC3C(F)F)nc1-2)C(N)=O (stereo not drawn) | 84.8% [middle of 8 runs] | 89.7% [middle of 8 runs] | – | – | 90.3% [middle of 8 runs] | 95.2% [middle of 8 runs] | viability, T/C (compound 0.01 µM): 95% [middle of 8 runs]; IC50 [1]: > 1 µM
7 | 9.53 µM and > 10 µM and 9.39 µM | CCCS(=O)(=O)Nc1ccc(F)c(C(=O)c2c[nH]c3ncc(-c4ccc(Cl)cc4)cc23)c1F | 90.4% [middle of 4 runs] | 88% [middle of 4 runs] | 122% [middle of 4 runs] | 52.3% [middle of 4 runs] | 90.6% [middle of 4 runs] | – | –
8 | > 1 µM | CCN1CCN(Cc2ccc(Nc3ncc(F)c(-c4cc(F)c5nc(C)n(C(C)C)c5c4)n3)nc2)CC1 | 86.1% [middle of 4 runs] | 93.5% [middle of 4 runs] | – | – | 93.7% [middle of 4 runs] | 102% [middle of 4 runs] | –
9 | – | COc1c(OCCCN2CCOCC2)ccc2c3n(c(=NC(=O)c4cnc(N)nc4)nc12)CCN3 | 88.2% [middle of 8 runs] | 67.3% [middle of 8 runs] | – | – | 75.5% [middle of 8 runs] | 65.1% [middle of 8 runs] | viability, T/C (compound 0.01 µM): 91.7% [middle of 8 runs]; IC50 (compound alone, run of 06/13/2023): > 1 µM
10 | – | Cc1nc(NC(=O)N2CCCC2C(N)=O)sc1-c1ccnc(C(C)(C)C(F)(F)F)c1 (stereo not drawn) | – | – | – | 80.8% [middle of 8 runs] | 83.4% [middle of 8 runs] | – | IC50 [1]: > 10 µM
11 | > 3 µM | Cn1cnc2c(F)c(Nc3ccc(Br)cc3Cl)c(C(=O)NOCCO)cc21 | – | – | – | – | – | – | viability, T/C (compound 0.00949 µM): 85.4% [middle of 4 runs]; viability, T/C (compound 0.949 µM): 79.5% [middle of 4 runs]
12 | > 10 µM | Cn1nccc1Nc1nccc(-c2ccn(C(CO)c3ccc(Cl)c(F)c3)c(=O)c2)n1 (stereo not drawn) | 88.9% [middle of 4 runs] | 72.8% [middle of 4 runs] | 91.2% [middle of 4 runs] | – | – | 94% [middle of 4 runs] | –
13 | > 0.1 µM | Cn1ncnc1[C@H]1c2n[nH]c(=O)c3cc(F)cc(c23)N[C@@H]1c1ccc(F)cc1 | 103% [middle of 4 runs] | – | – | – | 89.3% [middle of 4 runs] | – | viability, T/C (compound 0.000316 µM): 99.1% [middle of 4 runs]; viability, T/C (compound 0.00316 µM): 90.5% [middle of 4 runs]
